The numbers were not newly measured in US20230109626A1 (priority 2020, published 2023), which cites them from elsewhere.

The conditions of this data set: for solubility in water: at 20° C.

Regarding `[H]/N=C(\N/C(=N/[H])NCCCCCCNC(=N)NC(=N)Nc1ccc(Cl)cc1)Nc1ccc(Cl)cc1` [Chlorhexidine], the solubility in water was 80 mg/100 mL. For the same compound, for the setting “temperature not given”, the solubility entry was “about 80 mg/100 mL”. Regarding `N=C(NCCCCCCNC(=N)NC(=N)Nc1ccc(Cl)cc1)NC(=N)Nc1ccc(Cl)cc1.O=C(O)[C@H](O)[C@@H](O)[C@H](O)[C@H](O)CO.O=C(O)[C@H](O)[C@@H](O)[C@H](O)[C@H](O)CO` [chlorhexidine gluconate], the solubility in water is on record as no less than 2100 mg/100 mL.
